Laboratory results: article PMC6704710, “Preclinical evaluation of 3D185, a novel potent inhibitor of FGFR1/2/3 and CSF-1R, in FGFR-dependent and macrophage-dominant cancer models” (Journal of Experimental & Clinical Cancer Research : CR, 2019)

Columns and labels:
Test in all cases: Eurofins kinase panel
Assay type in all cases: biochemical
Details in all cases: read-out: Inhibition rate (%)
PKCθ(h) = target: T1, PKCθ(h) (Homo sapiens, UniProt Q04759)
T1 construct: purchased Eurofins (KinaseProfiler)
Procedure: (§1) Active FGFR1–4, VEGFR1, KDR, VEGFR3, PDGFRα and PDGFRβ proteins were purchased from Eurofins (Fremont, United States), and kinase activity was assessed using ELISA, as previously reported. […]. Increasing concentrations of ATP were diluted for the kinase reaction in the ATP competition assay. CSF-1R kinase activity was analyzed using the Z’-LYTE™ Kinase Assay Kit (Thermo Fisher, United States). The assay formats are described in the SelectScreen Kinase Profiling Service Zlyte protocol. IC50 values were calculated by dose-response curve fitting using Prism (Graph Pad).

CK1δ(h) = target: T2, CK1δ(h) (Homo sapiens, UniProt P48730)
T2 construct: purchased Eurofins (KinaseProfiler)
Procedure: as §1

PKAcβ(h) = target: T3, PKAcβ(h) (Homo sapiens, UniProt P22694)
T3 construct: purchased Eurofins (KinaseProfiler)
Procedure: as §1

cKit(D816H)(h) = target: T4, cKit(D816H)(h) (Homo sapiens, UniProt P10721, D816H)
T4 construct: purchased Eurofins (KinaseProfiler)
Procedure: as §1

ErbB2(h) = target: T5, ErbB2(h) (Homo sapiens, UniProt P04626)
T5 construct: purchased Eurofins (KinaseProfiler)
Procedure: as §1

JAK3(h) = target: T6, JAK3(h) (Homo sapiens, UniProt P52333)
T6 construct: purchased Eurofins (KinaseProfiler)
T6 sequence (P52333 1-1124): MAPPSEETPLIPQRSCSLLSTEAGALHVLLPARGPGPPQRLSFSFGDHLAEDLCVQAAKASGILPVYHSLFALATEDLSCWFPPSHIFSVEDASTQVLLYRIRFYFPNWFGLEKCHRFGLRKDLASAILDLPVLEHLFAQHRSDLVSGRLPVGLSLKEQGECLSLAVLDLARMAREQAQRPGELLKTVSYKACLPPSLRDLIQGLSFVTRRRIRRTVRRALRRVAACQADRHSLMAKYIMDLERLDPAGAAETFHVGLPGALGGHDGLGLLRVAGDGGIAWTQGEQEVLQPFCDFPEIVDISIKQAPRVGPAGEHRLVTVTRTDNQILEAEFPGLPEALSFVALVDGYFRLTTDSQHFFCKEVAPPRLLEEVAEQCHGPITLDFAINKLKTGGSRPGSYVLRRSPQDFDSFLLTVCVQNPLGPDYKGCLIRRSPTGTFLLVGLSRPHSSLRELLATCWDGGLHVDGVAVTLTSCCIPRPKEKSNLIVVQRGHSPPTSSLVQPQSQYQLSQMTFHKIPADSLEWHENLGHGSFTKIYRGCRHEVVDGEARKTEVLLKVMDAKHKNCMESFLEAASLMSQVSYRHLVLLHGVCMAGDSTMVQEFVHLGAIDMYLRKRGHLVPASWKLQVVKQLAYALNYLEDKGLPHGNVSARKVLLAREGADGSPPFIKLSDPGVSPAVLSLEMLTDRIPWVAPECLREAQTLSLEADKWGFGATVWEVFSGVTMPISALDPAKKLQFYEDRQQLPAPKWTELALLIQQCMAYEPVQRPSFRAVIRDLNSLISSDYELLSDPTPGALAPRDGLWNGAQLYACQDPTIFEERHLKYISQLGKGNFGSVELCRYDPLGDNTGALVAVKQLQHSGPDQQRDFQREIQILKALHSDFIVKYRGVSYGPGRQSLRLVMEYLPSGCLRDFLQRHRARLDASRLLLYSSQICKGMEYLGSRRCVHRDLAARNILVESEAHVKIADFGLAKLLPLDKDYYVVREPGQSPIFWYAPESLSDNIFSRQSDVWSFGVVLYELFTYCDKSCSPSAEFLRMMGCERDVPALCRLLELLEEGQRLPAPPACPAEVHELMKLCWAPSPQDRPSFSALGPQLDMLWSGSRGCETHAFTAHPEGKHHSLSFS
Procedure: as §1

SAPK3(h) = target: T7, SAPK3(h) (Homo sapiens, UniProt P53778)
T7 construct: purchased Eurofins (KinaseProfiler)
T7 sequence (P53778 1-367): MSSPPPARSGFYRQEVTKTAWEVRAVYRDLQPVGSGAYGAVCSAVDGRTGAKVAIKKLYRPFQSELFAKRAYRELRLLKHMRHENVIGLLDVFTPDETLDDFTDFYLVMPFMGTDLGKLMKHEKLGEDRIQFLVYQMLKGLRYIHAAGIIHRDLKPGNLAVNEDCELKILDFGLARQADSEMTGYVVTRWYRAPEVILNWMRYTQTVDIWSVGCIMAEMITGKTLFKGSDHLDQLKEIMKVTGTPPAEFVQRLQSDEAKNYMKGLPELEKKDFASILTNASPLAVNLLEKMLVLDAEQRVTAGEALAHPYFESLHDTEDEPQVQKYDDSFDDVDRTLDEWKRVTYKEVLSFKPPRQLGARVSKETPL
Procedure: as §1

EphA7(h) = target: T8, EphA7(h) (Homo sapiens, UniProt Q15375)
T8 construct: purchased Eurofins (KinaseProfiler)
Procedure: as §1

DNA-PK(h) = target: T9, DNA-PK(h) (Homo sapiens, UniProt P78527)
T9 construct: purchased Eurofins (KinaseProfiler)
Procedure: as §1

[1] = target: T10, PI3 Kinase (p110α(H1047R)/p85α)(h) (Homo sapiens, UniProt P42336, H1047R)
T10 construct: purchased Eurofins (KinaseProfiler)
Procedure: as §1

T10 sequence (P42336 whole entry H1047R): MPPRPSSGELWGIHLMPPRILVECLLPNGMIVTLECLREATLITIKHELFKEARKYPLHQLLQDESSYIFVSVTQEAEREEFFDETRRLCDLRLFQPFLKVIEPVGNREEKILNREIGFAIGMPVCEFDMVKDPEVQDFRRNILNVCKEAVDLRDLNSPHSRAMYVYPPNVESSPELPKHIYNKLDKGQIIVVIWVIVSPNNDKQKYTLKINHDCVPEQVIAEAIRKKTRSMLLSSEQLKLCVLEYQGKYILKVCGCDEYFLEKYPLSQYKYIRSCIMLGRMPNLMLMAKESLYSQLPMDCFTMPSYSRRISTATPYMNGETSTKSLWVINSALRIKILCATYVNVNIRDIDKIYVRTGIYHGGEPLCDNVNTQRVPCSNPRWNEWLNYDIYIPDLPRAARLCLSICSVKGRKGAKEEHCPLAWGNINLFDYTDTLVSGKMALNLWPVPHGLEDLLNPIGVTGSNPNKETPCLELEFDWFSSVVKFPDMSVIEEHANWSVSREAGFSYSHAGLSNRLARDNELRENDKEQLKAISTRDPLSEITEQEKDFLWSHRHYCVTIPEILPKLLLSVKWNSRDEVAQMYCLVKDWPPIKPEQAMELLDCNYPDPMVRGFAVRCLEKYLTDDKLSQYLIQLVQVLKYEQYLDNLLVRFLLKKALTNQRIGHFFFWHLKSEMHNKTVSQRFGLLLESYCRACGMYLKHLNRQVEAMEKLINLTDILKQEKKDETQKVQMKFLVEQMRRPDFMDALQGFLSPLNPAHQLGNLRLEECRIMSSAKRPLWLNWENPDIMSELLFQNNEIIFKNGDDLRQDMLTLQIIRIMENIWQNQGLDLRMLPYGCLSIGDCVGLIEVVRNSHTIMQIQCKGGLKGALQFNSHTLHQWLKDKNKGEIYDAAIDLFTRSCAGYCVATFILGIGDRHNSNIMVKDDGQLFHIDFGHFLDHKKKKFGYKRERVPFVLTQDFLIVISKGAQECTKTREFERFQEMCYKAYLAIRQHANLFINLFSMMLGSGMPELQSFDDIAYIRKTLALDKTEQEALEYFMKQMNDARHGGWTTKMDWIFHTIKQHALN
T10 sequence (P27986 whole entry partner): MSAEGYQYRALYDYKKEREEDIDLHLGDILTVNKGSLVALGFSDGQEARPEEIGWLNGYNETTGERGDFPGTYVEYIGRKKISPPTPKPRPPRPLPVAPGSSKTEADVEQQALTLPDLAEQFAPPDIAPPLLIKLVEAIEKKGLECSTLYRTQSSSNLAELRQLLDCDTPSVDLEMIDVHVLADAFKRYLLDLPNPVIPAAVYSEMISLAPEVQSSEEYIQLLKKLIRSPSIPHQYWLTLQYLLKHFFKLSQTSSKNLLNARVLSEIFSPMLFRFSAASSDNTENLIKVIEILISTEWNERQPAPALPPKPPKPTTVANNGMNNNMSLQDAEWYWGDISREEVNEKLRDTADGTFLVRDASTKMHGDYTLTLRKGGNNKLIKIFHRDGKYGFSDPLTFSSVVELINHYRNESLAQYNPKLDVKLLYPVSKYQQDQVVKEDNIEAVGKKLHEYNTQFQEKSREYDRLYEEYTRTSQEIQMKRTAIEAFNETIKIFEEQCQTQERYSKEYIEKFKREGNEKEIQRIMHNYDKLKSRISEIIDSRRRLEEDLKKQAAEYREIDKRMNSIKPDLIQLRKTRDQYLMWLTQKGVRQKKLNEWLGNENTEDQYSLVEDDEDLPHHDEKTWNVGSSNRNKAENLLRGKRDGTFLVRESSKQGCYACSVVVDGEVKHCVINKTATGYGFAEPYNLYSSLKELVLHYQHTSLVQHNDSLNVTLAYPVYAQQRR
T2 sequence (P48730 whole entry): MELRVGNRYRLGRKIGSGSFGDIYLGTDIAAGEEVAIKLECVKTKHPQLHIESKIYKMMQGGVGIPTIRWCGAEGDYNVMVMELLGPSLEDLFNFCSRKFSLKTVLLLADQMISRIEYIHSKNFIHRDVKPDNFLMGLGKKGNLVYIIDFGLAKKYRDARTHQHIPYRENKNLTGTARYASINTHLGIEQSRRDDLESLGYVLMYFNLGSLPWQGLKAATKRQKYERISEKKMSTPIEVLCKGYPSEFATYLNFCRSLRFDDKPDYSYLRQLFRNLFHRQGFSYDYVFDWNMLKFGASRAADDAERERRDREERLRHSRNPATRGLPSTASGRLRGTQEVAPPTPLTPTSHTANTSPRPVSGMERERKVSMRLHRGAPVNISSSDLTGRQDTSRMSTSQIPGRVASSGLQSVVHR
T1 sequence (Q04759 whole entry): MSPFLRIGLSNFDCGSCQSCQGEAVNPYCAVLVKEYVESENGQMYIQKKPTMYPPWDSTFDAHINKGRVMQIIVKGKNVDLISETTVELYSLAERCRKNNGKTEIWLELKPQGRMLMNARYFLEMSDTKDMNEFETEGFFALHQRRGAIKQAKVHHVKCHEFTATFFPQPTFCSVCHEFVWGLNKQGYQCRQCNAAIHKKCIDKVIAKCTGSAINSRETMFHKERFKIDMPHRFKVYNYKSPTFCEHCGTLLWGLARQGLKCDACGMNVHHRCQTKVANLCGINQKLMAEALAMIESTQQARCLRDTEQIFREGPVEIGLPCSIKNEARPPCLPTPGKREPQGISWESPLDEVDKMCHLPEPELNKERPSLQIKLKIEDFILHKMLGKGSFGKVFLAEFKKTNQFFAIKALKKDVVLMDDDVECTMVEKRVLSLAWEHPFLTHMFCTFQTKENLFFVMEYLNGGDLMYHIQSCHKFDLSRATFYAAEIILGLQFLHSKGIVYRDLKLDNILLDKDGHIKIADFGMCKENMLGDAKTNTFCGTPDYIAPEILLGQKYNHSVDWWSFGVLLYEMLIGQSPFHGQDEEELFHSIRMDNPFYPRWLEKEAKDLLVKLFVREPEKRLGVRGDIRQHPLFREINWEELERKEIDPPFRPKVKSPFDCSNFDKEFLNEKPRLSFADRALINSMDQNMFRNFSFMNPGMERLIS
T8 sequence (Q15375 28-998): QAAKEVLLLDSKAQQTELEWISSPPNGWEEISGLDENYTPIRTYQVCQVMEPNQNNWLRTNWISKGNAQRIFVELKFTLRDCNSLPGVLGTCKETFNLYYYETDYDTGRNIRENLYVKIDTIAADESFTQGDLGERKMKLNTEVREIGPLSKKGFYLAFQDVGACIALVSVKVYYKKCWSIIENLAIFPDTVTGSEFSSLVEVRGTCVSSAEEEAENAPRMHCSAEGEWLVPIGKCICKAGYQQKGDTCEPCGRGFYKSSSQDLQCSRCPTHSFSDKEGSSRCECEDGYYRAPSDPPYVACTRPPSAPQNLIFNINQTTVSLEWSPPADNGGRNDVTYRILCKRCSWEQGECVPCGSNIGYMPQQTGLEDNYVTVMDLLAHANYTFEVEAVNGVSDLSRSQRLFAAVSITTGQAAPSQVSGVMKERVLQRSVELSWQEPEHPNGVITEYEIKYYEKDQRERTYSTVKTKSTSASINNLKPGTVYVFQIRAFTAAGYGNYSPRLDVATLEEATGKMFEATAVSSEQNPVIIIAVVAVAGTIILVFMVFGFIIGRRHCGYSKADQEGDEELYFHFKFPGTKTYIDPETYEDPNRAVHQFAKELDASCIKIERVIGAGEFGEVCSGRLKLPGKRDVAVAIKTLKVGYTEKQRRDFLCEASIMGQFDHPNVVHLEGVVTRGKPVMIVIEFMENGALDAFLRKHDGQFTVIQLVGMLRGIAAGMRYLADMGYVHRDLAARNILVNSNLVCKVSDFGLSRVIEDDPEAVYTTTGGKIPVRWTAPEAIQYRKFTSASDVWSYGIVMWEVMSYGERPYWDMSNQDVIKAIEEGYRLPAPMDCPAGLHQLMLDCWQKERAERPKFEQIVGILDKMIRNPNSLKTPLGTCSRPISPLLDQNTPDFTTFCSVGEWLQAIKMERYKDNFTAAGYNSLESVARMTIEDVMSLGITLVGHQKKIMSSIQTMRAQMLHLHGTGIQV
T4 sequence (P10721 26-976 D816H): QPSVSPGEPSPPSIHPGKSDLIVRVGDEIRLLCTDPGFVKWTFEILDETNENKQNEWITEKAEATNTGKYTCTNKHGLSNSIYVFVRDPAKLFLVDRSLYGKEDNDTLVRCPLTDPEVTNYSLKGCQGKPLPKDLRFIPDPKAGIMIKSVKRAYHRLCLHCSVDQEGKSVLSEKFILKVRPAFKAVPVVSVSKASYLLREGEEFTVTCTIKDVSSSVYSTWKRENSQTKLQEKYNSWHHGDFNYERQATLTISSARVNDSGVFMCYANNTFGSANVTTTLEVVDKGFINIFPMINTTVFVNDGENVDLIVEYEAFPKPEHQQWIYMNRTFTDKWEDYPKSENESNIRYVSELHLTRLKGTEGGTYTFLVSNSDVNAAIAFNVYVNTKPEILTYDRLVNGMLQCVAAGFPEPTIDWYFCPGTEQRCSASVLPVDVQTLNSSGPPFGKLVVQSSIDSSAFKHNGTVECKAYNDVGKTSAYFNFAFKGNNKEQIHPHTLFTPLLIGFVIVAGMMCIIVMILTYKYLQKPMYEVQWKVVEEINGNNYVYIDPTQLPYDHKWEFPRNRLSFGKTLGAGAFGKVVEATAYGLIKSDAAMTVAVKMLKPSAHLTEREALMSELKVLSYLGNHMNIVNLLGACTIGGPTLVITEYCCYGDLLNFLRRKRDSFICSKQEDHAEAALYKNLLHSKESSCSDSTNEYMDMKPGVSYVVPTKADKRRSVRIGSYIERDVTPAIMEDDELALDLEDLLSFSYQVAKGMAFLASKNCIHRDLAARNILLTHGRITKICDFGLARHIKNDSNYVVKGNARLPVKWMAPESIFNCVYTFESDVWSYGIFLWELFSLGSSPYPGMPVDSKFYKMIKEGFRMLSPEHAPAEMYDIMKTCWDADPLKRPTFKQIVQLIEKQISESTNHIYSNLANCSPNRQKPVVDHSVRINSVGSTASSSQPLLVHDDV

SMILES: COc1cc(OC)c(Cl)c(-c2ccc3c(NC(=O)c4ccc(N5CCNC(C)(C)C5)cc4)n[nH]c3n2)c1Cl [3D185]
- inhibition at 0.01 µM (PKCθ(h); 10 nM): -3%
- inhibition at 0.1 µM (PKCθ(h); 100 nM): -4%
- inhibition at 1 µM (PKCθ(h); 1000 nM): 1%
- inhibition at 0.01 µM (CK1δ(h); 10 nM): -10%
- inhibition at 0.1 µM (CK1δ(h); 100 nM): 0%
- inhibition at 1 µM (CK1δ(h); 1000 nM): 6%
- inhibition at 0.01 µM (PKAcβ(h); 10 nM): -6%
- inhibition at 0.1 µM (PKAcβ(h); 100 nM): -11%
- inhibition at 1 µM (PKAcβ(h); 1000 nM): -11%
- inhibition at 0.01 µM (cKit(D816H)(h); 10 nM): 22%
- inhibition at 0.1 µM (cKit(D816H)(h); 100 nM): 27%
- inhibition at 1 µM (cKit(D816H)(h); 1000 nM): 44%
- inhibition at 0.01 µM (ErbB2(h); 10 nM): -7%
- inhibition at 0.1 µM (ErbB2(h); 100 nM): -11%
- inhibition at 1 µM (ErbB2(h); 1000 nM): -11%
- inhibition at 0.01 µM (JAK3(h); 10 nM): -11%
- inhibition at 0.1 µM (JAK3(h); 100 nM): 0%
- inhibition at 1 µM (JAK3(h); 1000 nM): 10%
- inhibition at 0.01 µM (SAPK3(h); 10 nM): -4%
- inhibition at 0.1 µM (SAPK3(h); 100 nM): -12%
- inhibition at 1 µM (SAPK3(h); 1000 nM): -7%
- inhibition at 0.01 µM (EphA7(h); 10 nM): 0%
- inhibition at 0.1 µM (EphA7(h); 100 nM): 8%
- inhibition at 1 µM (EphA7(h); 1000 nM): 21%
- inhibition at 0.01 µM (DNA-PK(h); 10 nM): 5%
- inhibition at 0.1 µM (DNA-PK(h); 100 nM): 2%
- inhibition at 1 µM (DNA-PK(h); 1000 nM): 0%
- inhibition at 0.01 µM ([1]; 10 nM): 1%
- inhibition at 0.1 µM ([1]; 100 nM): 3%
- inhibition at 1 µM ([1]; 1000 nM): -5%
